Source: ChEMBL document CHEMBL1140917, “Structure-activity relationships of antitubercular nitroimidazoles. 1. Structural features associated with aerobic and anaerobic activities of 4- and 5-nitroimidazoles” (2009)

Legend:
Assay type in all cases: functional
[1] = tested on: Mycobacterium tuberculosis; test: Antimycobacterial activity against Mycobacterium tuberculosis with cofactor F420 mutant
[2] = tested on: Mycobacterium tuberculosis; test: Antimycobacterial activity against Mycobacterium tuberculosis with deazaflavin-dependent nitroreductase mutant under anaerobic condition
[3] = tested on: Mycobacterium tuberculosis; test: Antimycobacterial activity against Mycobacterium tuberculosis with deazaflavin-dependent nitroreductase mutant

Structure (SMILES)	MIC [1] [µM]	MAC [2] [µM]	MIC [3] [µM]
CO[C@@H]1COc2nc([N+](=O)[O-])cn2C1	>100	250	>100
COc1ncc([N+](=O)[O-])n1CCO	>100	>500	>100
O=[N+]([O-])c1cnc2n1C[C@H](OCc1ccc(OC(F)(F)F)cc1)CO2	>100	62.5	>100
O=[N+]([O-])c1cnc2n1C[C@@H](O)CC2	>100	>100	>100
O=[N+]([O-])c1cn2c(n1)OC[C@@H](O)C2	>100	500	>100
COc1nc([N+](=O)[O-])cn1CCOCc1ccc(OC(F)(F)F)cc1	>100	250	>100
O=[N+]([O-])c1cnc2n1C[C@H](O)CO2	>100	125	>100
Cc1ncc([N+](=O)[O-])n1CCOCc1ccc(OC(F)(F)F)cc1	>100	125	>100
O=[N+]([O-])c1cn2c(n1)C=C[C@@H](OCc1ccc(OC(F)(F)F)cc1)C2	>100	62.5	>100
Cc1nc([N+](=O)[O-])cn1CCOCc1ccc(OC(F)(F)F)cc1	>100	>500	>100
O=[N+]([O-])c1cn2c(n1)CC[C@@H](OCc1ccc(OC(F)(F)F)cc1)C2	>100	250	>100
Cc1nc([N+](=O)[O-])cn1CCO	>100	>500	>100
O=[N+]([O-])c1cnc2n1C[C@H](O)CC2	>100	>500	>100
FC(F)(F)Oc1ccc(CO[C@@H]2COc3nccn3C2)cc1	>100	>500	>100
Cc1ncc([N+](=O)[O-])n1CCO [METRONIDAZOLE]	>100		>100
O=[N+]([O-])c1cn2c(n1)OC[C@@H](OCc1ccc(OC(F)(F)F)cc1)C2 [PRETOMANID]	>100	>500	>100
